The text below walks through data of patent US20210132065A1, “MAMMALIAN MHC PEPTIDE DISPLAY AS AN EPITOPE SELECTION TOOL FOR VACCINE DESIGN” (ETH Zürich, priority 2018, published 2021).

Where two headings read alike, the source gives them in different places. Where no end group is shown, it is not given here.

For assay [1], the system named is HLA DRB 1-4. The settings on record: published studies; cited from earlier work.
For assay [2], the system named is HLA-DRB1_4. Format: cell-based, human. The following applies: for MCR surface expression: peptide covalently linked to beta chain, anti-HLA-DR APC antibody, FACS.

Consider “MP1 107-121: MP1 peptide comprising amino acids 107-121, known from published studies (Schmid et al Immunity 2007) (ITFHGAKEISLSYSA; UniProt P03485 107-121, looked up, fragment)”, for which, in assay [1], the “presentation by HLA” value is “efficiently presented”.
With “MP1103-120: influenza Matrix Protein 1 peptide, amino acids 103-120, covalently linked to the HLA beta chain of the MCR (LKREITFHGAKEISLSYS; also: covalently linked to HLA beta chain of the MCR; UniProt P03485 103-120, looked up, fragment)”, the MCR surface expression result is “efficient surface expression” in assay [2] and “high surface expression” in assay [2] (listed as MP1103-121).
For “MP1107-117: core epitope of influenza Matrix Protein 1, amino acids 107-117, tested within peptides with different flanking regions (ITFHGAKEISL; UniProt P03485 107-117, looked up, fragment)”, the “presentation (MCR surface expression)” value in assay [2] (FIG. 6, anti-CD3e or anti-HLA-DR PE antibodies, peptides containing the core epitope with different flanking regions) is recorded as “efficiently be presented”.
With “MP162-72: influenza Matrix Protein 1-derived peptide comprising amino acids 62-72, covalently linked to the HLA beta chain of the MCR (FVFTLTVPSER; also: covalently linked to HLA beta chain of the MCR; UniProt P03485 62-72, looked up, fragment)”, in assay [2], the MCR surface expression result is listed as “not the other HLAs tested”.
As to “MP1 103-117: MP1 peptide comprising amino acids 103-117, known from published studies (Schmid et al Immunity 2007) (LKREITFHGAKEISL; UniProt P03485 103-117, looked up, fragment)”, the “presentation by HLA” value in assay [1] was “efficiently presented”.
